Literature values in US5279834A, “Pharmaceutical or cosmetic composition containing hydroquinone and kojic acid” (priority 1987, dated 1994).

Details: background statement; The Journal of Investigative Dermatology 73, 354-358 (1979)

CC1=C(/C=C/C(C)=C/C=C/C(C)=C/C(=O)O)C(C)(C)CCC1 [vitamin A acid]
irritant character: well known for its irritant character
